In publication PMC2965873, “Phase I and pharmacological study of the broad-spectrum tyrosine kinase inhibitor JNJ-26483327 in patients with advanced solid tumours” (British Journal of Cancer, 2010):

Key:
[1] = system: patients with advanced solid tumours; test: phase I safety, DLT and MTD; type: in vivo
Procedure: JNJ-26483327 was supplied by Johnson & Johnson Pharmaceutical Research and Development, Beerse, Belgium as 10 or […] oral solution for doses ⩽1200 mg, or capsules of 50, 100 or 300 mg for doses ⩾1500 mg. Medication was taken in combination with food BID with 12 h intervals. A cycle was defined as 28 days of treatment.
The study followed an accelerated-escalation design. Initial cohorts consisted of one patient with dose doublings between cohorts in the absence of grade ⩾2 toxicity according to the National Cancer Institute Common Toxicity Criteria version 3.0 during the first cycle (http://ctep.cancer.gov/protocolDevelopment/electronic_applications/docs/ctcaev3.pdf). Once grade ⩾2 considered drug-related toxicity occurred during the first cycle, two additional patients were enrolled at that dose level with subsequent cohorts in accordance with a conventional dose-escalation (3+3) model. DLT was defined as any grade 3 or 4 non-haematological toxicity, except for nausea, vomiting or diarrhoea responsive to treatment; grade 3 skin rash/acne responsive to treatment, alopecia and isolated grade 3 GGT elevations; need for loperamide for >7 days to treat or prevent grade ⩾2 diarrhoea; need for continuous administration of 5HT-3 antagonists for >7 days to treat or prevent grade ⩾2 nausea or vomiting; a relative decrease of LVEF on MUGA scan of >20% compared with baseline; any grade 4 haematological toxicity or treatment interruptions of >14 days for grade ⩾2 toxicity in cycle 1.
If during the conventional escalation stage no DLT occurred, the dose for the next cohort was incremented with 20–100%. If DLT was observed during cycle 1 in one of three patients, an additional three patients were enrolled at that dose level. If ⩾2 out of 6 patients experienced DLT, the MTD was exceeded and three more patients were enrolled at the next lower dose level, unless already six patients had been accrued at that dose. The MTD was defined as the highest dose at which less than one-third of the patients experienced DLT.
(§1) Prior to therapy, a complete medical history was taken and a physical examination was performed. A complete blood cell (CBC) count, WBC count and differential and serum biochemistry including lipid profile and coagulation tests were performed, as were urinalysis, a 12-lead electrocardiogram (ECG) and MUGA scanning. Weekly evaluations during the first cycle, every other week during the second cycle and monthly thereafter included history, physical examination, adverse event assessment, CBC, WBC+differential, serum chemistry, ECG and urinalysis. An ECG was performed predose and 1, 2, 4, 8 and 24 h postdose on days 1 and 28. Follow-up of LVEF by MUGA scanning was performed at the end of the first and second cycle. Tumour measurements were performed at baseline and during every other cycle. Response was assessed according to RECIST ([Therasse et al, 2000]).

[2] = system: c-Src; parameters: method as in Johnson & Johnson, data on file; settings: ref Johnson & Johnson, data on file; cited from earlier work
[3] = parameters: method as in Johnson & Johnson, data on file; settings: preclinical studies; ref Johnson & Johnson, data on file; cited from earlier work
[4] = system: healthy male volunteers; parameters: method as in preceding study in healthy male volunteers; settings: single doses up to and including 200 mg; ref preceding study in healthy male volunteers; cited from earlier work
[5] = system: xenograft mouse models; parameters: method as in Johnson & Johnson, data on file; settings: preclinical studies; ref Johnson & Johnson, data on file; cited from earlier work
[6] = system: Her4; parameters: method as in Johnson & Johnson, data on file; settings: ref Johnson & Johnson, data on file; read-out: IC50 range; cited from earlier work
[7] = system: Flt3; parameters: method as in Johnson & Johnson, data on file; settings: ref Johnson & Johnson, data on file; cited from earlier work
[8] = system: Lyn; parameters: method as in Johnson & Johnson, data on file; settings: Src family; ref Johnson & Johnson, data on file; read-out: IC50 range; cited from earlier work
[9] = molecular target: RET-receptor kinase; parameters: method as in Johnson & Johnson, data on file; settings: in vitro; ref Johnson & Johnson, data on file; cited from earlier work
[10] = system: mutationally activated EGFR kinases; parameters: method as in Johnson & Johnson, data on file; settings: in vitro, several mutants; ref Johnson & Johnson, data on file; cited from earlier work
[11] = system: Fyn; parameters: method as in Johnson & Johnson, data on file; settings: Src family; ref Johnson & Johnson, data on file; read-out: IC50 range; cited from earlier work
[12] = molecular target: EGFR kinase; parameters: method as in Johnson & Johnson, data on file; settings: in vitro; ref Johnson & Johnson, data on file; cited from earlier work
[13] = system: advanced solid tumours; test: anti-tumour activity (RECIST); type: in vivo, human; settings: 19 patients
Procedure: as §1

[14] = system: Her2; parameters: method as in Johnson & Johnson, data on file; settings: ref Johnson & Johnson, data on file; cited from earlier work
[15] = system: Yes; parameters: method as in Johnson & Johnson, data on file; settings: Src family; ref Johnson & Johnson, data on file; read-out: IC50 range; cited from earlier work
[16] = parameters: method as in Johnson & Johnson, data on file; settings: ref Johnson & Johnson, data on file; cited from earlier work
[17] = phase I plasma pharmacokinetics; type: in vivo, human
Procedure: For pharmacokinetic analysis, blood samples (3 ml) were collected before dosing and 0.5, 1, 2, 3, 4, 6, 8 and 24 h after drug administration on days 1 and 28 and predose, 0.5, 1, 2, 4 and 6 h postdose on day 15 of the first cycle and day 28 of the second cycle. Furthermore, trough PK samples were taken before drug administration on days 8 and 22. Blood samples were collected and protected from light in EDTA-Vacutainer® tubes and plasma was separated by centrifugation and stored at −20°C within 2 h of collection. Plasma concentrations of JNJ-26483327 were determined by validated, selective and sensitive liquid chromatography–mass spectrometry bioanalytical method.
Graphical analysis was performed using dose-normalised Cmax as well as AUC of days 1 and 28 for exploration of dose proportionality across doses.
The pharmacokinetic analysis and descriptive statistics were performed using PKAA 2.00 (developed for J&JPRD). PKAA 2.00 uses WinNonLin 5.2.1. Elimination rate constants (λz) were calculated as the negative of the slope of the terminal log-linear segment of the plasma concentration–time curves. The range of data used for each subject and dose were determined by visual inspection of a semi-logarithmic plot of concentration vs time. At least three data points were used to estimate λz. All PK calculations and figures used validated software.

[18] = 800 mg BID, day 1, n=3, mean±s.d.
[19] = 800 mg BID, day 28 (steady state), n=2, mean
[20] = 1200 mg BID, day 1, n=3, mean±s.d.
[21] = 1200 mg BID, day 28 (steady state), n=2, mean
[22] = 1500 mg BID, day 1, n=6, mean±s.d.
[23] = 1500 mg BID, day 28 (steady state), n=6, mean±s.d.
[24] = 2100 mg BID, day 1, n=3, mean±s.d.
[25] = 2100 mg BID, day 28 (steady state), n=2, mean

With `COc1cc2ncnc3c2cc1OCCCCCN(C)Cc1ccc(Br)cc1N3` [JNJ-26483327] the “Anaemia: patients, Total %” value ([1]; in vivo) was 15.8%, the “Anaemia: patients, Total n” value ([1]; in vivo) was 3 and the “Anorexia: patients, Total %” value ([1]; in vivo) was 42.1%. For the same compound, the “Constipation: patients, Total %” value ([1]; in vivo) was 10.5%, the “Constipation: patients, Total n” value ([1]; in vivo) was 2 and the “Diarrhoea: patients, Total n” value ([1]; in vivo) was 12. The “Dry skin: patients, Total %” value ([1]; in vivo) was 10.5%, the “Dry skin: patients, Total n” value ([1]; in vivo) was 2 and the “Dyspepsia: patients, Total %” value ([1]; in vivo) was 10.5%. For the same compound, the “Dyspepsia: patients, Total n” value ([1]; in vivo) was 2, the “Dysphonia: patients, Total %” value ([1]; in vivo) was 15.8% and the “Dysphonia: patients, Total n” value ([1]; in vivo) was 3. The “Fatigue: patients, Total %” value ([1]; in vivo) was 47.4%, the “Fatigue: patients, Total n” value ([1]; in vivo) was 9 and the “Nausea: patients, Total %” value ([1]; in vivo) was 68.4%. For the same compound, the “Nausea: patients, Total n” value ([1]; in vivo) was 13, the “Pain: patients, Total %” value ([1]; in vivo) was 10.5% and the “Pain: patients, Total n” value ([1]; in vivo) was 2. For the same compound, the “Rash: patients, Total %” value ([1]; in vivo) was 57.9%, the “Rash: patients, Total n” value ([1]; in vivo) was 11 and the “Skin discolouration: patients, Total %” value ([1]; in vivo) was 5.3%. The “Skin discolouration: patients, Total n” value ([1]; in vivo) was 1, the “Skin exfoliation (palms): patients, Total %” value ([1]; in vivo) was 5.3% and the “Skin exfoliation (palms): patients, Total n” value ([1]; in vivo) was 1. The “Vomiting: patients, Total %” value ([1]; in vivo) was 52.6%, the “Vomiting: patients, Total n” value ([1]; in vivo) was 10 and the “Weight decreased: patients, Total %” value ([1]; in vivo) was 10.5%. The “Weight decreased: patients, Total n” value ([1]; in vivo) was 2, the “gastrointestinal side effects, incidence” value ([1]; in vivo) was 95% and the hypertension ([1]; in vivo) was “no hypertension was noted”. For the same compound, the “patients with grade 2 anaemia” value ([1]; in vivo) was “three”, the “skin toxicity, overall incidence” value ([1]; in vivo) was 68% and the “subjects with a significant decrease in LVEF” value ([1]; in vivo) was “None”. The “recommended dose for further studies (phase 2 dose)” value ([1]; in vivo, po) was 1500 mg BID, the “maximum tolerated dose (MTD)” value ([1]; oral, continuous, 28-day cycles) was 1500 mg BID and the IC50 [2] was 100 to 1000 nM. The tissue distribution profile [3] was “passage of the blood–brain barrier”, the safety and tolerability [4] was “safe and well tolerated” and the anti-cancer activity [5] was “anti-cancer activity was observed”. The IC50 [6] was 11 to 99 nM, the IC50 [7] was 100 to 1000 nM and the IC50 [8] was 11 to 99 nM. For the same compound, the IC50 [9] was < 10 nM, the IC50 [10] was < 10 nM and the IC50 [11] was 11 to 99 nM. The IC50 [12] was < 10 nM, the “patients with stable disease lasting more than two cycles” value ([13]; 100–2100 mg BID) was “six” and the “patients with stable disease” value ([13]; more than two cycles) was 32%. For the same compound, the IC50 [14] was 100 to 1000 nM, the IC50 [15] was 11 to 99 nM and the oral bioavailability [16] was ~80%. The CL/F [17, 18] was 86.3 ± 33.5 L/h, the Cmax [17, 18] was 2210 ± 593 ng/mL and the Vdz/F [17, 18] was 1021 ± 401 L. For the same compound, the t1/2 [17, 18] was 8.4 ± 1.8 h, the tmax ([17]; 800 mg BID, day 1, n=3, median (min–max)) was 2.03 (2.00–3.02) h and the “AUC (AUCtau)” value [17, 19] was 10 623 ng h ml^−1. For the same compound, the CL/F [17, 19] was 76.4 L/h, the Cmax [17, 19] was 2390 ng/mL and the tmax ([17]; 800 mg BID, day 28 (steady state), n=2, median (min–max)) was 1.52 (1.00–2.03) h. For the same compound, the CL/F [17, 20] was 47.4 ± 35.3 L/h, the Cmax [17, 20] was 3707 ± 1927 ng/mL and the Vdz/F [17, 20] was 342 ± 212 L. The t1/2 [17, 20] was 5.2 ± 1.7 h, the tmax ([17]; 1200 mg BID, day 1, n=3, median (min–max)) was 3.00 (2.00–6.00) h and the “AUC (AUCtau)” value [17, 21] was 21 230 ng h ml^−1. For the same compound, the CL/F [17, 21] was 88.4 L/h, the Cmax [17, 21] was 2750 ng/mL and the tmax ([17]; 1200 mg BID, day 28 (steady state), n=2, median (min–max)) was 1.00 (1.00–1.00) h. It also gave a CL/F [17, 22] of 144 ± 104 L/h, a Cmax [17, 22] of 2361 ± 1765 ng/mL and a Vdz/F [17, 22] of 1038 ± 799 L. For the same compound, the t1/2 [17, 22] was 4.8 ± 0.5 h, the tmax ([17]; 1500 mg BID, day 1, n=6, median (min–max)) was 4.00 (2.00–4.03) h and the CL/F [17, 23] was 286 ± 540 L/h. For the same compound, the Cmax [17, 23] was 3375 ± 2116 ng/mL, the tmax ([17]; 1500 mg BID, day 28 (steady state), n=6, median (min–max)) was 3.99 (3.00–12.00) h and the CL/F [17, 24] was 3055 ± 5099 L/h. For the same compound, the t1/2 [17, 24] was 6.7 ± 1.7 h, the Cmax ([17]; 2100 mg BID, day 1, n=4, mean±s.d.) was 2213 ± 2983 ng/mL and the tmax ([17]; 2100 mg BID, day 1, n=4, median (min–max)) was 3.54 (2.00–4.08) h. For the same compound, the “AUC (AUCtau)” value [17, 25] was 8467 ng·h/mL, the CL/F [17, 25] was 3087 L/h and the Cmax [17, 25] was 1236 ng/mL. For the same compound, the tmax ([17]; 2100 mg BID, day 28 (steady state), n=2, median (min–max)) was 5.00 (4.00–6.00) h, the “dose proportionality of pharmacokinetics” value ([17]; Cmax and AUC at steady state) was “dose proportional up to 1500 mg” and the terminal half-life ([17]; all dose levels) was 5 to 8 h. The “peak concentration (average)” value ([17]; day 1, 1200 mg) was ~4 μg ml^–1, the Cmax ([17]; day 1, 1500 and 2100 mg dose groups) was ~2 μg ml^–1 and the “time to reach Cmax” value ([17]; first administration, capsule formulation (dose levels 1500 and 2100 mg)) was “up to 4 h”. For the same compound, the “time to reach Cmax” value ([17]; first administration, liquid formulation (dose levels 800 and 1200 mg)) was 2 to 3 h, the “time to reach Cmax” value ([17]; steady state (days 15 and 28), capsule formulation) was 2 to 5 h and the “time to reach Cmax” value ([17]; steady state (days 15 and 28), liquid formulation) was 1 to 2 h.
